Molecules are shown by their SMILES.

From patent publication US20140243335A1, “SUBSTITUTED HYDOXAMIC ACIDS AND USES THEREOF” (Millennium Pharmaceuticals, Inc., priority 2010, published 2014) come the findings set out here.

For the experiment, the target named is T1, purified human HDAC6 (Homo sapiens, UniProt Q9UBN7).
T1 construct: purchased BPS Bioscience 5006
T1 sequence (Q9UBN7 1-1215): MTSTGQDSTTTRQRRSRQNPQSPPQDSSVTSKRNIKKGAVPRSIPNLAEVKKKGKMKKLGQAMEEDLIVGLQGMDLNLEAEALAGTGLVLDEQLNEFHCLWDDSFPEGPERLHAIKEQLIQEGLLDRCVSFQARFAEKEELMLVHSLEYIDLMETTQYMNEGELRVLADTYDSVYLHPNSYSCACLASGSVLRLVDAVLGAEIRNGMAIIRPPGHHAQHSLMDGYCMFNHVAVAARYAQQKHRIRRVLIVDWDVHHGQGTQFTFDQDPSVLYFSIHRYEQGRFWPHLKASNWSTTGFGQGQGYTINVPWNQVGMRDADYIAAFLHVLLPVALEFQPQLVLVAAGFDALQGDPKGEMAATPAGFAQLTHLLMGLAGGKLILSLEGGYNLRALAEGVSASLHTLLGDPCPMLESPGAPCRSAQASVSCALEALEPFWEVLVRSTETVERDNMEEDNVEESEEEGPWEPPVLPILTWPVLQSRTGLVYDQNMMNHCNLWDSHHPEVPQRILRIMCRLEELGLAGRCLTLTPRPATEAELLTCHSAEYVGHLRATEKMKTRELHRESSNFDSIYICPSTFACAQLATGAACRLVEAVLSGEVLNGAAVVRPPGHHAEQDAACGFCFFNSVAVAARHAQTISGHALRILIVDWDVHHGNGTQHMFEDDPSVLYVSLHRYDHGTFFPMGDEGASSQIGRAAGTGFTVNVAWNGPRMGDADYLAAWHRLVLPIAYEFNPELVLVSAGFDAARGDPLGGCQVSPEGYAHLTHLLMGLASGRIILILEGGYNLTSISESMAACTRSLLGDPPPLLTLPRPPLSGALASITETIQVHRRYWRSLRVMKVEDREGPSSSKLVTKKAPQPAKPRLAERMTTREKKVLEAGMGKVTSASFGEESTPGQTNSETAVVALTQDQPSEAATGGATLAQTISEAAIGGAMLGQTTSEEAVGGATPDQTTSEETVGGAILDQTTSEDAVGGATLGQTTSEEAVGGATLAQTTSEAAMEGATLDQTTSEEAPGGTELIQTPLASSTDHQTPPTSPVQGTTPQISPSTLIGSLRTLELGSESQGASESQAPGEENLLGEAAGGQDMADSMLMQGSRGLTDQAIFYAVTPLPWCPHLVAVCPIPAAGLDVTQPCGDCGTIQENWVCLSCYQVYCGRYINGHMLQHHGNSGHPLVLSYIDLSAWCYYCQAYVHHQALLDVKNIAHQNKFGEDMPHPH
Put plainly: HDAC6 Enzyme Assay. The experiment is classed as biochemical. Particulars: HDAC6 inhibition at a compound concentration of 0.412 μM; read-out: Percent Inhibition at 0.412 μM.
As for `CC(=O)Nc1cccc(C2CCc3ccc(C(=O)NO)cc3C2)c1` (stereo not drawn) [Compound I-92, 7-[3-(acetylamino)phenyl]-N-hydroxy-5,6,7,8-tetrahydronaphthalene-2-carboxamide], the inhibition at 0.412 µM came to 92%. As for `O=C(NO)c1ccc2c(c1)CC(CCc1ccccc1)CC2` (stereo not drawn) [Compound I-93, N-hydroxy-7-(2-phenylethyl)-5,6,7,8-tetrahydronaphthalene-2-carboxamide], the figure is 74%; as for `O=C(Nc1ccccc1)NC1CCc2ccc(C(=O)NO)cc2C1` (stereo not drawn) [Compound I-94, 7-[(anilinocarbonyl)amino]-N-hydroxy-5,6,7,8-tetrahydronaphthalene-2-carboxamide], 96%; as for `O=C(NO)c1ccc2c(c1)CC(Nc1ccncc1)CC2` (stereo not drawn) [Compound I-95, N-hydroxy-7-(pyridin-4-ylamino)-5,6,7,8-tetrahydronaphthalene-2-carboxamide], 71%. As for `O=C(NO)c1ccc2c(c1)CC(NS(=O)(=O)c1ccccc1)CC2` (stereo not drawn) [Compound I-96, N-hydroxy-7-[(phenylsulfonyl)amino]-5,6,7,8-tetrahydronaphthalene-2-carboxamide], the figure is 92%; as for `CC(=O)Nc1cc(C2CCc3ccc(C(=O)NO)cc3C2)ccn1` (stereo not drawn) [Compound I-97, 7-[2-(acetylamino)pyridin-4-yl]-N-hydroxy-5,6,7,8-tetrahydronaphthalene-2-carboxamide], 92%; as for `Nc1cc(C2CCc3ccc(C(=O)NO)cc3C2)ncn1` (stereo not drawn) [Compound I-98, 7-(6-aminopyrimidin-4-yl)-N-hydroxy-5,6,7,8-tetrahydronaphthalene-2-carboxamide], 93%. As for `O=C(NO)c1ccc2c(c1)CCC(c1ccncc1)C2` (stereo not drawn) [Compound I-99, N-hydroxy-6-pyridin-4-yl-5,6,7,8-tetrahydronaphthalene-2-carboxamide], the figure is 77%; as for `O=C(NO)c1ccc2c(c1)CCC(c1ccccc1)C2` (stereo not drawn) [Compound I-100, N-hydroxy-6-phenyl-5,6,7,8-tetrahydronaphthalene-2-carboxamide], 62%; as for `O=C(NO)c1ccc2c(c1)CCC(c1ccc(Cl)cc1)C2` (stereo not drawn) [Compound I-101, 6-(4-chlorophenyl)-N-hydroxy-5,6,7,8-tetrahydronaphthalene-2-carboxamide], 55%. Consider `CC(=O)Nc1cccc(C2CCc3cc(C(=O)NO)ccc3C2)c1` (stereo not drawn) [Compound I-102, 6-[3-(acetylamino)phenyl]-N-hydroxy-5,6,7,8-tetrahydronaphthalene-2-carboxamide], for which the inhibition at 0.412 µM came out at 85%. As to `O=C(NO)c1ccc2c(c1)CCC(CCc1cccc(F)c1)C2` (stereo not drawn) [Compound I-103, 6-[2-(3-fluorophenyl)ethyl]-N-hydroxy-5,6,7,8-tetrahydronaphthalene-2-carboxamide], the inhibition at 0.412 µM worked out at 63%. On to `COc1ccccc1C1CCc2cc(C(=O)NO)ccc2C1` (stereo not drawn) [Compound I-104, N-hydroxy-6-(2-methoxyphenyl)-5,6,7,8-tetrahydronaphthalene-2-carboxamide], for which the inhibition at 0.412 µM was 56%. As for `COc1ccc(C2CCc3cc(C(=O)NO)ccc3C2)cc1` (stereo not drawn) [Compound I-105, N-hydroxy-6-(4-methoxyphenyl)-5,6,7,8-tetrahydronaphthalene-2-carboxamide], the figure is 43%; as for `O=C(NO)c1ccc2c(c1)CCC(NCc1ccc(Cl)cc1)C2` (stereo not drawn) [Compound I-106, 6-[(4-chlorobenzyl)amino]-N-hydroxy-5,6,7,8-tetrahydronaphthalene-2-carboxamide], 90%; as for `O=C(NO)c1ccc2c(c1)CCC(NCc1ccncc1)C2` (stereo not drawn) [Compound I-107, N-hydroxy-6-[(pyridin-4-ylmethyl)amino]-5,6,7,8-tetrahydronaphthalene-2-carboxamide], 84%. As for `O=C(NO)c1ccc2c(c1)CCC(Oc1ccncc1)C2` (stereo not drawn) [Compound I-108, N-hydroxy-6-(pyridin-4-yloxy)-5,6,7,8-tetrahydronaphthalene-2-carboxamide], the figure is 95%; as for `O=C(NO)c1ccc2c(c1)CCC(c1ccccc1C(F)(F)F)C2` (stereo not drawn) [Compound I-109, N-hydroxy-6-[2-(trifluoromethyl)phenyl]-5,6,7,8-tetrahydronaphthalene-2-carboxamide], 53%; as for `COc1cccc(C2CCc3cc(C(=O)NO)ccc3C2)c1` (stereo not drawn) [Compound I-110, N-hydroxy-6-(3-methoxyphenyl)-5,6,7,8-tetrahydronaphthalene-2-carboxamide], 42%.

As for `CC(C)(C)C(=O)NC1CCc2cc(C(=O)NO)ccc2C1` (stereo not drawn) [Compound I-111, 6-[(2,2-dimethylpropanoyl)amino]-N-hydroxy-5,6,7,8-tetrahydronaphthalene-2-carboxamide], the inhibition at 0.412 µM stood at 75%. For the molecule `COc1cccc(C(=O)NC2CCc3cc(C(=O)NO)ccc3C2)c1` (stereo not drawn) [Compound I-112, N-hydroxy-6-[(3-methoxybenzoyl)amino]-5,6,7,8-tetrahydronaphthalene-2-carboxamide], the inhibition at 0.412 µM is 87%. The same measure for `O=C(NO)c1ccc2c(c1)CCC(c1cccc(C(F)(F)F)c1)C2` (stereo not drawn) [Compound I-113, N-hydroxy-6-[3-(trifluoromethyl)phenyl]-5,6,7,8-tetrahydronaphthalene-2-carboxamide]: 53%; for `CC1(C(=O)NC2CCc3ccc(C(=O)NO)cc3C2)CCNCC1` (stereo not drawn) [Compound I-114, N-{7-[(hydroxyamino)carbonyl]-1,2,3,4-tetrahydronaphthalen-2-yl}-4-methylpiperidine-4-carboxamide]: 82%. As to `O=C(NO)c1ccc2c(c1)CC(c1cccc(C(F)(F)F)c1)CC2` (stereo not drawn) [Compound I-115, N-hydroxy-7-[3-(trifluoromethyl)phenyl]-5,6,7,8-tetrahydronaphthalene-2-carboxamide], the inhibition at 0.412 µM is 81%. For the molecule `COc1ccccc1C1CCc2ccc(C(=O)NO)cc2C1` (stereo not drawn) [Compound I-116, N-hydroxy-7-(2-methoxyphenyl)-5,6,7,8-tetrahydronaphthalene-2-carboxamide], the inhibition at 0.412 µM is 81%. The same measure for `O=C(NO)c1ccc2c(c1)CC(OCc1ccc(Cl)cc1)CC2` (stereo not drawn) [Compound I-117, 7-[(4-chlorobenzyl)oxy]-N-hydroxy-5,6,7,8-tetrahydronaphthalene-2-carboxamide]: 92%.

Regarding `CCOC1CCc2ccc(C(=O)NO)cc2C1` (stereo not drawn) [Compound I-118, 7-ethoxy-N-hydroxy-5,6,7,8-tetrahydronaphthalene-2-carboxamide], the inhibition at 0.412 µM came to 75%. The same measure for `COc1cccc(C2CCc3ccc(C(=O)NO)cc3C2)c1` (stereo not drawn) [Compound I-119, N-hydroxy-7-(3-methoxyphenyl)-5,6,7,8-tetrahydronaphthalene-2-carboxamide]: 74%. As to `O=C(NO)c1ccc2c(c1)CC(c1cccnc1)CC2` (stereo not drawn) [Compound I-120, N-hydroxy-7-pyridin-3-yl-5,6,7,8-tetrahydronaphthalene-2-carboxamide], the inhibition at 0.412 µM came to 85%. The same measure for `O=C(NO)c1ccc2c(c1)CCC(c1cccnc1)C2` (stereo not drawn) [Compound I-121, N-hydroxy-6-pyridin-3-yl-5,6,7,8-tetrahydronaphthalene-2-carboxamide]: 80%.

A word on the inhibition: it is the percentage by which the read-out fell short of the control.
